Several values for one entry are separate records, joined by “and”; a condition that tells them apart may be missing. Equal values may be shown once.

This experiment relates to human telomerease (HL60 cell extract). The experiment in a line: Antitelomerease activity: extension of oligonucleotide TS followed by PCR amplification, with HL60 extract. The experiment is classed as biochemical. The following applies: read-out: TRAP IC50. How it is done:
The antitelomerease biological activity is determined by the following experimental protocol:
The leukaemia line HL60 is obtained from ATCC (American Type Culture Collection, Rockville, USA). The cells are cultured in suspension in RPMI 1640 medium containing L-glutamine at 2 mM, penicillin 200 U/ml, streptomycin 200 μg/ml, gentamycin 50 μg/ml and supplemented with 10% heat-inactivated foetal calf serum.
An aliquot of 10^5 cells is centrifuged at 3000×G and the supernatant discarded. The cell pellet is resuspended by several successive pipettings in 200 μl of lysis buffer containing 0.5% CHAPS, 10 mM Tris-HCl, pH 7.5, 1 mM MgCl2, 1 mM EGTA, 5 mM β-mercaptoethanol, 0.1 mM PMSF and 10% glycerol and is stored in ice for 30 minutes. The lysate is centrifuged at 160,000×G for 20 minutes at 4° C. and 160 μl of supernatant are recovered. The proteins in the extract are assayed by the Bradford method. The extract is stored at −80° C.
The inhibition of the telomerease activity is determined by a protocol for extension of the oligonucleotide TS (^5′AATCGTTCGAGCAGAGTT^3′), in the presence of a cellular extract enriched in telomerease activity and compounds which are added at various concentrations (10, 1, 0.1 and 0.01 μM). The extension reaction is followed by a PCR amplification of the extension products with the aid of the oligonucleotides TS and CXext (^5′[…]^3′).
The reaction medium is prepared based on the following composition:
The oligonucleotides are obtained from Eurogentec (Belgium) and are stored at −20° C. at a stock concentration of 1 mg/ml in distilled water.
The reaction samples are assembled in 0.2 ml PCR tubes and one drop of paraffin oil is deposited on each of the reactions of the experiment before closing the tubes.
The reaction samples are then incubated in a Cetus 4800-type PCR apparatus under the following temperature conditions: • 15 minutes at 30° C., • 1 minute at 90° C., • followed by 30 cycles of, • 30 seconds at 94° C., • 30 seconds at 50° C., • and 1 minute 30 seconds at 72° C., • followed by a final cycle of 2 minutes at 72° C.
For each of the samples, an aliquot of 10 μl is pipetted under the oil layer and mixed with 5 μl of a loading buffer containing:
The samples are then analysed by electrophoresis on 12% acrylamide gel in a 1×TBE buffer for 1 hour at a voltage of 200 volts, with the aid of a Novex electrophoresis system.
The acrylamide gels are then dried on a sheet of Whatmann 3 mm paper at 80° C. for 1 hour.
The analysis and the quantification of the reaction products are carried out with the aid of an InstantImager apparatus (Pacard).
For each compound concentration tested, the results are expressed as percentage inhibition of the reaction and calculated from the untreated enzymatic control and from the enzyme-free sample (blank) according to the following formula: (compound value−blank value/enzymatic control value−blank value)×100.
The concentration of compound inducing a 50% inhibition of the telomerease reaction (IC50) is determined with the aid of a semilogarithmic graphical representation of the inhibition values obtained as a function of each of the compound concentrations tested.
A compound is considered to be active as an antitelomerease agent when the quantity inhibiting 50% of the telomerease reaction is in particular less than 5 μM.
As for `Cc1cc(N)c2cc(Nc3nc(NCCCN(C)C)nc(Nc4ccccc4Cl)n3)ccc2n1` [Example 6], the IC50 turned out to be 3.5 µM.
With `Cc1cc(N)c2cc(Nc3nc(Nc4ccc5nc(C)cc(N)c5c4)nc(Sc4ncccn4)n3)ccc2n1` [Example 121] the figure was 0.4 µM and 0.36 µM; with `Cc1cc(N)c2cc(Nc3nc(Nc4ccc5nc(C)cc(N)c5c4)nc(Nc4ncccn4)n3)ccc2n1` [Example 94], 0.94 µM; with `Cc1cc(N)c2cc(Nc3nc(Nc4ccc5nc(C)cc(N)c5c4)nc(Nc4cc5ccccc5cn4)n3)ccc2n1` [Example 100], 0.45 µM.
With `Cc1cc(N)c2cc(Nc3nc(NCc4cccc5ccccc45)nc(Nc4ccc5nc(C)cc(N)c5c4)n3)ccc2n1` [Example 78] the figure was 1.5 µM.
With `Cc1cc(N)c2cc(Nc3nc(Nc4ccc5nc(C)cc(N)c5c4)nc(Nc4cccc5cccnc45)n3)ccc2n1` [Example 97] the figure was 0.69 µM.
For `Cc1cc(N)c2cc(Nc3nc(Nc4ccc5nc(C)cc(N)c5c4)nc(Oc4ccccc4)n3)ccc2n1` [Example 29, 2,4-bis(4-amino-2-methylquinolin-6-yl)amino-6-phenoxy-[1,3,5]triazine], the IC50 was 0.32 µM and 0.47 µM.
Under `Cc1cc(N)c2cc(Nc3nc(Nc4ccc5nc(C)cc(N)c5c4)nc(Nc4nccc5ccccc45)n3)ccc2n1` [Example 87] stands 1.5 µM; under `Cc1cc(N)c2cc(Nc3nc(Nc4ccc5nc(C)cc(N)c5c4)nc(Nc4ccc5c6c(cccc46)CC5)n3)ccc2n1` [Example 99], 0.6 µM.
For `Cc1cc(N)c2cc(Nc3nc(Nc4ccc5nc(C)cc(N)c5c4)nc(Nc4cccc5ncccc45)n3)ccc2n1` [Example 95], the IC50 amounted to 0.93 µM.
With `Cc1cc2c(Nc3nc(Nc4ccc5nc(C)cc(N)c5c4)nc(Nc4ccc5nc(C)cc(N)c5c4)n3)cccc2cn1` [Example 101] the figure was 0.81 µM.
Consider `Cc1cc(N)c2cc(Nc3nc(Nc4ccc5nc(C)cc(N)c5c4)nc(Sc4ccc5ccccc5c4)n3)ccc2n1` [Example 116], for which the IC50 was 1.8 µM.
Under `COc1cccc(Nc2nc(Nc3ccc4nc(C)cc(N)c4c3)nc(Nc3ccc4nc(C)cc(N)c4c3)n2)c1` [Example 82] stands 1.6 µM; under `Cc1cc(N)c2cc(Nc3nc(Nc4ccc5ncccc5c4)nc(Nc4ccc5nc(C)cc(N)c5c4)n3)ccc2n1` [Example 96], 0.48 µM; under `Cc1cc(N)c2cc(Nc3nc(Nc4ccc5nc(C)cc(N)c5c4)nc(Nc4cccc5nn[nH]c45)n3)ccc2n1` [Example 61], 0.36 µM.
On to `Cc1cc(N)c2cc(Nc3nc(NCCN4CCOCC4)nc(Nc4ccc5nc(C)cc(N)c5c4)n3)ccc2n1` [Example 80], for which the concentration for half-maximal inhibition (IC50) is 1.2 µM.
With `CCOc1cc(Nc2nc(Nc3ccc4nc(C)cc(N)c4c3)nc(Nc3ccc4nc(C)cc(N)c4c3)n2)c2ncccc2c1` [Example 102] the figure was 0.57 µM.
Turning to `Cc1cc(N)c2cc(Nc3nc(NCc4cccc5cnccc45)nc(Nc4ccc5nc(C)cc(N)c5c4)n3)ccc2n1` [Example 81], the IC50 was determined as 1.4 µM.
As to `COCCNc1nc(Nc2ccc3nc(C)cc(N)c3c2)nc(Nc2ccc3nc(C)cc(N)c3c2)n1` [Example 84], the IC50 is 2.2 µM.
With `Cc1cc(N)c2cc(Nc3nc(Nc4ccc5ccccc5c4)nc(Nc4ccc5nc(C)cc(N)c5c4)n3)ccc2n1` [Example 79] the figure was 3.6 µM.

The IC50 is the midpoint of a concentration-inhibition curve.

These data come from patent publication US6887873B2, “Triazine derivatives and their application as antitelomerase agents” (Aventis Pharma S.A., priority 2001, dated 2005).
